Numbers after ± are expanded uncertainties.
Experiment: mn = molality of the nth substance listed, in mol/kg
Details: 298.15 K, Ring tensiometer

## COC(=O)c1ccccc1O [methyl 2-hydroxybenzoate] + O
m1 = 0.001
  surface tension liquid-gas: 70.8 ± 0.9 mN/m
m1 = 0.0021
  surface tension liquid-gas: 70.1 ± 0.9 mN/m
m1 = 0.0031
  surface tension liquid-gas: 68.9 ± 0.9 mN/m
m1 = 0.0053
  surface tension liquid-gas: 65.2 ± 1.1 mN/m

## O [water] + C=CC(C)(C)O
m2 = 0
  surface tension liquid-gas: 70.8 ± 1 mN/m

## C=CC(C)(C)O [2-methyl-3-buten-2-ol] + O
m1 = 0.001
  surface tension liquid-gas: 70.6 ± 0.9 mN/m
m1 = 0.003
  surface tension liquid-gas: 69.7 ± 0.9 mN/m
m1 = 0.0052
  surface tension liquid-gas: 69.5 ± 0.9 mN/m
m1 = 0.0088
  surface tension liquid-gas: 67.7 ± 0.9 mN/m

## CC/C=C\CCOC(C)=O [(Z)-3-hexenyl acetate] + O
m1 = 0.0006
  surface tension liquid-gas: 66.8 ± 0.9 mN/m
m1 = 0.0015
  surface tension liquid-gas: 62.3 ± 0.8 mN/m
m1 = 0.0019
  surface tension liquid-gas: 58.7 ± 1.1 mN/m

## O [water] + CC/C=C\CCO
m2 = 0
  surface tension liquid-gas: 71.5 ± 0.9 mN/m

## O [water] + COC(=O)c1ccccc1O
m2 = 0
  surface tension liquid-gas: 71 ± 0.9 mN/m

## CC/C=C\CCO [(Z)-3-hexen-1-ol] + O
m1 = 0.001
  surface tension liquid-gas: 69.5 ± 0.9 mN/m
m1 = 0.003
  surface tension liquid-gas: 65.2 ± 1.4 mN/m
m1 = 0.005
  surface tension liquid-gas: 63.5 ± 0.8 mN/m
m1 = 0.006
  surface tension liquid-gas: 61.5 ± 0.8 mN/m

## O [water] + CC/C=C\CCOC(C)=O
m2 = 0
  surface tension liquid-gas: 70.2 ± 1 mN/m

Source: the NIST ThermoML archive (doi:10.1021/je500114m)
